From US9949465B2, “Atopic dermatitis model animal and use thereof” (HYOGO COLLEGE OF MEDICINE, priority 2013, dated 2018)
Structures can show the parent of a compound that is named as a salt.

How the values were obtained:
hK14mIL33tg mice [1] = experiment: Scratching behavior (skin scratching time) in hK14mIL33tg mice; format: in vivo, mouse
Experimental: Skin scratching time (sec/min) in any 20 min of wild-type mice (WT) and hK14mIL33tg mice (Tg) was measured. […] Furthermore, an effect of anti-histamine drugs on the scratching behavior was verified. Diphenhydramine hydrochloride (2 mg) was intraperitoneally administered to hK14mIL33tg mice. As a result, the scratching time of mice observed in 20 min from 6 min after the administration decreased from average 4.6 min to average 0.2 min (FIG. 19).

hK14mIL33tg mice [2] = experiment: Rash score of hK14mIL33tg mice after application to rash site; format: in vivo, mouse
Experimental: Each item can be measured by a known method, or according to the below-mentioned Examples. For example, as for the rash score, 5 items of pruritus, erythematous plaque/bleeding, edema, epidermis detachment/erosion, and desquamation/drying are evaluated and rated as absent (0 point), mild (1 point), moderate (2 points), and severe (3 points), and the total points are used for measurement (Matsuda H et al., Int. Immunol, 9(3):461-466, 1997). As for the number of inflammatory cells, for example, cells derived from skin tissue, peripheral blood or lymph node are analyzed by flow cytometry, and the ratio thereof can be measured. The inflammatory cells include eosinophils, neutrophils, basophils, mast cells, type 2 innate lymphoid cells and the like, preferably eosinophils, mast cells and type 2 innate lymphoid cells. The total IgE concentration, histamine concentration, cytokine concentration and chemokine concentration can be measured by ELISA using each antibody. As used herein, cytokine is preferably IL-5 or IL-13. […]
An effect of steroid drug on scratching behavior of hK14mIL33tg mice was verified. […] As rash scores, 5 items of pruritus, erythematous plaque/bleeding, edema, epidermis detach/erosion, and desquamation/drying were evaluated into absent (0 point), mild (1 point), moderate (2 points), and severe (3 points) (Matsuda H et al., Int. Immunol, 9(3):461-466, 1997). […]

Compound | scratching time after administration (hK14mIL33tg mice [1]; 2 mg intraperitoneally, observed in 20 min from 6 min after the administration, average, n=3, before administration average 4.6 min) | scratching time (result in words) (hK14mIL33tg mice [1]; hK14mIL33tg (Tg) mice, increased scratching time vs wild-type) | total points of rash score after application (hK14mIL33tg mice [2]; applied to rash site 5 times every 2 days, average, n=4, before application average 12.3 points, 5 items scored 0-3) | rash score (result in words) (hK14mIL33tg mice [2]; hK14mIL33tg (Tg) mice)
CN(C)CCOC(c1ccccc1)c1ccccc1 [Diphenhydramine hydrochloride] | 0.2 min | could reduce | – | –
CCCC(=O)O[C@]1(C(=O)COC(=O)CC)[C@@H](C)C[C@H]2[C@@H]3CCC4=CC(=O)C=C[C@]4(C)[C@@]3(F)[C@@H](O)C[C@@]21C [betamethasone butyrate propionate] | – | – | 4.8 points | could reduce
